According to ChEMBL document CHEMBL3526020, “Significance of peptide transporter 1 in the intestinal permeability of valacyclovir in wild-type and PepT1 knockout mice” (Drug Metab Dispos, 2013):

Experiments:
[1] = AUC (0 to 180 mins) in wild type mouse treated with 25 nmol/g, po of valacyclovir; type: ADME, organism-based; set-up: time < 3 hr, dose 25 nmol/g, route oral; conditions: plasma
[2] = AUC (0 to 180 mins) in PepT1 knockout mouse treated with 25 nmol/g, po of valacyclovir; type: ADME, organism-based; set-up: time < 3 hr, dose 25 nmol/g, route oral; conditions: plasma
[3] = Cmax in wild type mouse treated with 25 nmol/g, po of valacyclovir; type: ADME, organism-based; set-up: dose 25 nmol/g, route oral; conditions: in vivo
[4] = Cmax in PepT1 knockout mouse treated with 25 nmol/g, po of valacyclovir; type: ADME, organism-based; set-up: dose 25 nmol/g, route oral; conditions: in vivo
[5] = Tmax in wild type mouse treated with 25 nmol/g, po of valacyclovir; type: ADME, organism-based; conditions: in vivo
[6] = Tmax in PepT1 knockout mouse treated with 25 nmol/g, po of valacyclovir; type: ADME, organism-based; conditions: in vivo
[7] = Chemical stability of the compound; type: physicochemical
Plasma [8] = experiment: Drug level in mouse portal vein plasma treated with valacyclovir at 100 uM by HPLC analysis; type: ADME, cell-free
PepT1 (SLC15A1) [9] = target: T1, PepT1 (SLC15A1) (Mus musculus, UniProt Q9JIP7); experiment: Effective permeability of the compound assessed as PepT1-mediated drug uptake in wild type mouse jejunum at 100 uM by HPLC analysis; type: ADME; conditions: read-out: Peff
T1 sequence (Q9JIP7 whole entry): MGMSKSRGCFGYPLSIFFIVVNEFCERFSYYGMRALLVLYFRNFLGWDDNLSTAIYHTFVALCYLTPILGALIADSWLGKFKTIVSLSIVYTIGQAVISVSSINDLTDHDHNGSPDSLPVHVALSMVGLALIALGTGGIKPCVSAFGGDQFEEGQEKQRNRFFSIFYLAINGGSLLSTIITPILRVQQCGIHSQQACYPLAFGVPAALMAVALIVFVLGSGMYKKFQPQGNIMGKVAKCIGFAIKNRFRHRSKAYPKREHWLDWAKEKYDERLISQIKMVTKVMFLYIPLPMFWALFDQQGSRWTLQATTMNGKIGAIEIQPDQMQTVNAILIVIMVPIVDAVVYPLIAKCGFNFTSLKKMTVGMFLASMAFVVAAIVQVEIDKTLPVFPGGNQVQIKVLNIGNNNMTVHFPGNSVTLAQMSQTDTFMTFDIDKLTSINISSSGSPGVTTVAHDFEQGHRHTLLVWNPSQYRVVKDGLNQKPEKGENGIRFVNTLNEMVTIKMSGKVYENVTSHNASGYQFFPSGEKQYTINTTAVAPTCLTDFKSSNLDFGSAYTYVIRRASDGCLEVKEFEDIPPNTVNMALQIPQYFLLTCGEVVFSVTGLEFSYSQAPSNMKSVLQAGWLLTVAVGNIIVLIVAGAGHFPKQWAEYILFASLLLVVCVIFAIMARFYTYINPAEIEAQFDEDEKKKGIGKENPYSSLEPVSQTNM

[10] = Effective permeability of the compound in PepT1 knockout mouse jejunum at 100 uM by HPLC analysis; type: ADME, tissue-based; conditions: read-out: Peff
[11] = Permeability of the compound in human jejunum; type: ADME, tissue-based; conditions: read-out: permeability
[12] = Permeability in mouse jejunum; type: ADME, tissue-based; conditions: read-out: permeability
[13] = Drug uptake in human Caco2 cells; type: ADME, cell-based; conditions: Caco-2 cells
[14] = Drug uptake in rat jejunum; type: ADME, tissue-based
Ileum [15] = experiment: Effective permeability of the compound in PepT1 knockout mouse ileum at 100 uM by HPLC analysis relative to wild type mouse; type: ADME, tissue-based
Colon [16] = experiment: Effective permeability of the compound in PepT1 knockout mouse colon at 100 uM by HPLC analysis relative to wild type mouse; type: ADME
Jejunum [17] = experiment: Drug degradation in mouse jejunum at 100 uM by chromatographic analysis; type: ADME, tissue-based
Ileum [18] = experiment: Drug degradation in mouse ileum at 100 uM by chromatographic analysis; type: ADME, tissue-based
Duodenum [19] = experiment: Drug degradation in mouse duodenum at 100 uM by chromatographic analysis; type: ADME, tissue-based
Colon [20] = experiment: Drug degradation in mouse colon at 100 uM by chromatographic analysis; type: ADME, tissue-based
Plasma [21] = experiment: Prodrug activation in mouse portal vein plasma assessed as formation of acyclovir at 100 uM by HPLC analysis; type: cell-free
[22] = (§1) Drug uptake in wild type mouse jejunum at 0.01 to 50 mM by nonlinear Michaelis-Menten equation analysis; type: ADME, tissue-based; conditions: mouse, jejunum
Jejunum [23] = experiment: as §1; type: ADME, tissue-based
Jejunum [24] = experiment: Drug uptake in wild type mouse jejunum at 100 uM at pH 6.5 by HPLC analysis in presence of PepT1 substrate GlySar; type: ADME, tissue-based; conditions: in vivo, pH 6.5, 100 µM
Jejunum [25] = experiment: Drug uptake in wild type mouse jejunum at 100 uM at pH 6.5 by HPLC analysis in presence of PepT1 substrate cefadroxil; type: ADME, tissue-based; conditions: in vivo, pH 6.5, 100 µM
Jejunum [26] = experiment: Drug uptake in wild type mouse jejunum at 100 uM at pH 6.5 by HPLC analysis in presence of ATB0,+ substrate L-valine; type: ADME, tissue-based; conditions: in vivo, pH 6.5, 100 µM
Jejunum [27] = experiment: Drug uptake in wild type mouse jejunum at 100 uM at pH 6.5 by HPLC analysis in presence of PhT1/2 substrate L-histidine; type: ADME, tissue-based; conditions: in vivo, pH 6.5, 100 µM
Jejunum [28] = experiment: Drug uptake in wild type mouse jejunum at 100 uM at pH 6.5 by HPLC analysis in presence of organic anion substrate PAH; type: ADME, tissue-based; conditions: in vivo, pH 6.5, 100 µM
Jejunum [29] = experiment: Drug uptake in wild type mouse jejunum at 100 uM at pH 6.5 by HPLC analysis in presence of organic cation substrate TEA; type: ADME, tissue-based; conditions: in vivo, pH 6.5, 100 µM
PepT1 (SLC15A1) [30] = target: T1, PepT1 (SLC15A1); experiment: Effective permeability of the compound assessed as PepT1-mediated drug uptake in wild type mouse duodenum at 100 uM by HPLC analysis; type: ADME; conditions: read-out: Peff
PepT1 (SLC15A1) [31] = target: T1, PepT1 (SLC15A1); experiment: Effective permeability of the compound assessed as PepT1-mediated drug uptake in wild type mouse ileum at 100 uM by HPLC analysis; type: ADME, tissue-based; conditions: read-out: Peff
PepT1 (SLC15A1) [32] = target: T1, PepT1 (SLC15A1); experiment: Effective permeability of the compound assessed as PepT1-mediated drug uptake in wild type mouse colon at 100 uM by HPLC analysis; type: ADME; conditions: not told, read-out: Peff
Duodenum [33] = experiment: Effective permeability of the compound in PepT1 knockout mouse duodenum at 100 uM by HPLC analysis relative to wild type mouse; type: ADME
Jejunum [34] = experiment: Effective permeability of the compound in PepT1 knockout mouse jejunum at 100 uM by HPLC analysis relative to wild type mouse; type: ADME, tissue-based
[35] = substrate: CC(C)[C@H](N)C(=O)OCCOCn1cnc2c(=O)[nH]c(N)nc21; experiment: Permeability of the compound assessed as human PepT1-mediated drug uptake in Xenopus oocytes; type: ADME, cell-based
[36] = substrate: CC(C)[C@H](N)C(=O)OCCOCn1cnc2c(=O)[nH]c(N)nc21; experiment: Permeability of the compound assessed as human PepT1-mediated drug uptake in MDCK cells; type: ADME, cell-based
[37] = substrate: CC(C)[C@H](N)C(=O)OCCOCn1cnc2c(=O)[nH]c(N)nc21; experiment: Permeability of the compound assessed as human PepT1-mediated drug uptake in CHO cells at pH 5.5; type: ADME, cell-based
[38] = substrate: CC(C)[C@H](N)C(=O)OCCOCn1cnc2c(=O)[nH]c(N)nc21; experiment: Permeability of the compound assessed as human PepT1-mediated drug uptake in CHO cells at pH 7.9; type: ADME, cell-based

## Nc1nc2c(ncn2COCCO)c(=O)[nH]1 [ACYCLOVIR]
[1]
  AUC(0-t) at 3 h: 12.3 µM·h
[2]
  AUC(0-t) at 3 h: 5.02 µM·h
[3]
  Cmax: 9.3 µM
[4]
  Cmax: 2000 nM
[5]
  Tmax: 25 min
[6]
  Tmax: 1.17 h
[7]
  Stability: < 5%
Plasma [8]
  Drug metabolism: metabolite_detected
PepT1 (SLC15A1) [9]
  Papp at 100 µM: 4 ×10⁻⁶ cm/s
[10]
  Papp at 100 µM: 7.4 ×10⁻⁶ cm/s

## COCCc1ccc(OCC(O)CNC(C)C)cc1 (stereo not drawn) [METOPROLOL]
[11]
  Papp: 134 ×10⁻⁶ cm/s
[12]
  Papp: 50 ×10⁻⁶ cm/s

## CC(C)[C@H](N)C(=O)OCCOCn1cnc2c(=O)nc(N)[nH]c21.Cl [VALACYCLOVIR HYDROCHLORIDE]
[13]
  Km: 1.6 mM
[14]
  Km: 1.2 mM
[11]
  Papp: 166 ×10⁻⁶ cm/s
Ileum [15]
  Peff: < 10%
Colon [16]
  Peff: < 10%
[7]
  Stability: < 5%
Jejunum [17]
  Stability: Unstable
Ileum [18]
  Stability: Unstable
Duodenum [19]
  Stability: Unstable
Colon [20]
  Stability: Unstable
Plasma [21]
  Drug metabolism: metabolite_detected
[22]
  Km at up to 50000 µM: 10.2 mM
Jejunum [23]
  Kd: 3 ×10⁻⁵ cm/s
Jejunum [23]; mouse, in vivo, 50000 µM
  Drug uptake: 82%
  Vmax: 1.4 nmol/cm2/s
Jejunum [24]
  Drug uptake: Not Active
Jejunum [25]
  Drug uptake: Not Active
Jejunum [26]
  Drug uptake: Active
Jejunum [27]
  Drug uptake: Active
Jejunum [28]
  Drug uptake: Active
Jejunum [29]
  Drug uptake: Active
PepT1 (SLC15A1) [9]
  Papp at 100 µM: 170 ×10⁻⁶ cm/s
PepT1 (SLC15A1) [30]
  Papp at 100 µM: 240 ×10⁻⁶ cm/s
PepT1 (SLC15A1) [31]
  Papp at 100 µM: 210 ×10⁻⁶ cm/s
PepT1 (SLC15A1) [32]
  Papp at 100 µM: 27 ×10⁻⁶ cm/s
Duodenum [33]
  Peff: < 10%
Jejunum [34]
  Peff: < 10%

B1: Solute carrier family 15 member 1 (Homo sapiens) (protein)
chain: MGMSKSHSFFGYPLSIFFIVVNEFCERFSYYGMRAILILYFTNFISWDDNLSTAIYHTFVALCYLTPILGALIADSWLGKFKTIVSLSIVYTIGQAVTSVSSINDLTDHNHDGTPDSLPVHVVLSLIGLALIALGTGGIKPCVSAFGGDQFEEGQEKQRNRFFSIFYLAINAGSLLSTIITPMLRVQQCGIHSKQACYPLAFGVPAALMAVALIVFVLGSGMYKKFKPQGNIMGKVAKCIGFAIKNRFRHRSKAFPKREHWLDWAKEKYDERLISQIKMVTRVMFLYIPLPMFWALFDQQGSRWTLQATTMSGKIGALEIQPDQMQTVNAILIVIMVPIFDAVLYPLIAKCGFNFTSLKKMAVGMVLASMAFVVAAIVQVEIDKTLPVFPKGNEVQIKVLNIGNNTMNISLPGEMVTLGPMSQTNAFMTFDVNKLTRINISSPGSPVTAVTDDFKQGQRHTLLVWAPNHYQVVKDGLNQKPEKGENGIRFVNTFNELITITMSGKVYANISSYNASTYQFFPSGIKGFTISSTEIPPQCQPNFNTFYLEFGSAYTYIVQRKNDSCPEVKVFEDISANTVNMALQIPQYFLLTCGEVVFSVTGLEFSYSQAPSNMKSVLQAGWLLTVAVGNIIVLIVAGAGQFSKQWAEYILFAALLLVVCVIFAIMARFYTYINPAEIEAQFDEDEKKNRLEKSNPYFMSGANSQKQM
[35]
  Km: 5.9 mM
[36]
  Km: 3.8 mM
[37]
  Km: 7.4 mM
[38]
  Km: 2200 µM
